Laboratory results published in patent US20220143010A1, “CANCER TREATMENT COMPRISING NALTREXONE AND A CANNABINOID” (LDN Pharma Limited, priority 2019, published 2022).
“Also recorded” adds a separate entry of the source. Read-outs that look alike come from different tables or passages of the source.

Key:
Format in all cases: cell-based
CB2 = assay: Western blot of CB2 levels in MCF7 cultures after two days of treatment; conditions: for levels of the CB2 receptor after treatment: cancer cells (MCF7), summary statement
Protocol: Levels of Bcl2-associated death promoter (BAD), p21 protein, the opioid receptors kappa 1 (OPRK1) and mu 1 (OPRM1), and the cannabinoid receptors CBR1 (CB1) and CBR2 (CB2) are visualised by Western blot (left) against GAPDH as a loading control, and quantified via density analysis relative to GAPDH (right).
One illustrative and non-limiting experiment was carried out on cultures of MCF7 (breast cancer) cells. In brief, either LDN at 10 nM or 6BN at 1 μM or 10 μM was administered in vitro to a culture for two days, after which the expression levels of BAD, p21, opioid receptors kappa and mu, CB1, CB2, and GAPDH (as a loading control) were analysed via Western blot and subsequent quantification via density measurement of the bands.
In full, MCF7 cells were seeded into 6-well plates at a density of 1×10^5/well and left to adhere over-night. Naltrexone (10 nM) or 6-β-naltrexol (1 μM or 10 μM) were added to the cells before harvesting cells for western blot analysis. Primary probing was performed with specific antibodies generated against BAD, p21, OPRK1, […], CBR-1 and CBR-2. […] Anti-GAPDH was used as a loading control. All antibodies were used at a dilution of 1:1000, followed by the appropriate HRP conjugated secondary antibodies also at a dilution of 1:1000. Bands were visualised by the SuperSignal chemiluminescent detection system, and densitometry of band intensity was determined using Adobe Photoshop CS3, v10.0, and normalised to the loading control.

[1] = test system: MCF7 (breast cancer) cells; assay: Two-stage sequential treatment, cell number and viability (trypan blue); conditions: LDN 10 nM or 6BN 10 μM for 48 h before cannabidiol 10 μM for 48 h, versus reversed sequence
Protocol: Each treatment lasted four days and consisted of two days of treatment with the first agent (UN=control, LDN=Low Dose Naltrexone at 10 nM CBD=Cannabidiol, 6BN=6-β-naltrexol) before the second-named agent was introduced for a further two days.
Another illustrative and non-limiting experiment was carried out on cultures of MCF7 (breast cancer) cells. In brief, the cultures were treated with LDN or 6BN for two days, after which a cannabinoid was administered for a further two days. Cell number and viability were assessed on day four. The sequence of the administration for each therapeutic agent was reversed and the experiment repeated.
In full, MCF7 cells were seeded into 6-well plates at a density of 1.5×10^4/well and left to adhere. Cells were then cultured with naltrexone (10 nM), 6-β-naltrexol (10 μM) or cannabidiol (10 μM). Drug-containing media was removed after 48 h, and cells were rinsed gently with drug-free medium. Fresh culture medium was then added to the cells supplemented with either naltrexone (10 nM), 6-β-naltrexol (10 μM) or cannabidiol (10 μM), as indicated in the graph. Cell number and viability were assessed a further 48 h later, with percentages of live and dead cells being discriminated by trypan blue dye exclusion. Data were then consolidated to compare the effect of sequence on overall effect.

A549 (lung cancer) cells = assay: Two-block schedule LDN+CBD and chemotherapeutic agent, cell number and viability at 96 h
Protocol: • A549 (lung cancer) and HCT116 (colon cancer) cells were cultured with drugs according to the schedules in Table 1. The schedules lasted a total of 96 h. • Treatments were separated into two blocks, each lasting 48 h. Due to the complications of cell testing using three different drugs in three different treatment phases, the CBD and LDN were administered together in one treatment phase and the chemotherapeutic agent in the other treatment phase. • There was a washout period between the two blocks, where exhausted media containing drugs were removed, cells then washed, before fresh media was added that contained the next block of treatment. • The chemotherapeutic agents were gemcitabine (GEM) or oxaliplatin (OXP), and used at an ˜IC20 concentration (1 uM). Low dose naltrexone (LDN) was used at 10 nM and cannabinoid (CBD) was used at 1 uM. “0” means nothing was administered and is used as a control. • Cell number and percentage cell viability were assessed at 96 h. Data were then consolidated to compare the effect of sequence on overall effect.

Oc1ccc2c3c1OC1C(O)CC[C@@]4(O)[C@@H](C2)N(CC2CC2)CC[C@]314 (stereo partly shown) [6BN, N-cyclopropylmethyl-7,8-dihydro-14-hydroxynorisomorphine]
rise of CB2 compared among the three treatments (CB2; MCF7 cells, 10 μM 6BN, two days): highest | levels of the CB2 receptor after treatment (CB2): significant increase | effect on inhibiting the proliferation of the cancer, by sequence [1]: greater effect on inhibiting the proliferation

Nc1ccn([C@@H]2O[C@H](CO)[C@@H](O)C2(F)F)c(=O)n1 [GEM, gemcitabine]
IC20 (A549 (lung cancer) cells; Homo sapiens, A549, read-out: IC20 concentration): ~1000 nM

O=C1CC[C@@]2(O)[C@H]3Cc4ccc(O)c5c4[C@@]2(CCN3CC2CC2)[C@H]1O5 [LDN, 17-cyclopropylmethyl-4.5α-epoxy-3,14-dihydroxymorphinan-6-one]
levels of the CB2 receptor after treatment (CB2): significant increase; also recorded: increased significantly | effect on inhibiting the proliferation of the cancer, by sequence [1]: greater effect on inhibiting the proliferation

O=C1[O][Pt]2([NH][C@@H]3CCCC[C@H]3[NH]2)[O]C1=O [OXP, oxaliplatin]
IC20 (A549 (lung cancer) cells; concentration used in Example 3, A549 and HCT116, cell line not specified, read-out: IC20 concentration): ~1000 nM
